# Results published in patent US5789379A, “Glucagon-like peptide-2 analogs” (Allelix Biopharmaceutical Inc., priority 1996, dated 1998).
# Square brackets hold non-standard residues; d marks the D form. Ends that are not written are not given here. Peptide text beside a SMILES is read from it.
# Tests used:
# human placental DPP-IV = target: T1, human placental DPP-IV (Homo sapiens, UniProt P27487); test: Assay for resistance to dipeptidyl peptidase IV; assay type: in vitro ADME; details: for cleavage products detected: after 24 hours incubation with DPP-IV at 37° C., RP-HPLC
# T1 construct: a solution of human placental DPP-IV (Calbiochem, La Jolla, Calif., cat. # 317624); purchased Calbiochem, La Jolla, Calif; 317624; host or cells: human placenta (tissue-derived)
# T1 sequence (P27487 whole entry): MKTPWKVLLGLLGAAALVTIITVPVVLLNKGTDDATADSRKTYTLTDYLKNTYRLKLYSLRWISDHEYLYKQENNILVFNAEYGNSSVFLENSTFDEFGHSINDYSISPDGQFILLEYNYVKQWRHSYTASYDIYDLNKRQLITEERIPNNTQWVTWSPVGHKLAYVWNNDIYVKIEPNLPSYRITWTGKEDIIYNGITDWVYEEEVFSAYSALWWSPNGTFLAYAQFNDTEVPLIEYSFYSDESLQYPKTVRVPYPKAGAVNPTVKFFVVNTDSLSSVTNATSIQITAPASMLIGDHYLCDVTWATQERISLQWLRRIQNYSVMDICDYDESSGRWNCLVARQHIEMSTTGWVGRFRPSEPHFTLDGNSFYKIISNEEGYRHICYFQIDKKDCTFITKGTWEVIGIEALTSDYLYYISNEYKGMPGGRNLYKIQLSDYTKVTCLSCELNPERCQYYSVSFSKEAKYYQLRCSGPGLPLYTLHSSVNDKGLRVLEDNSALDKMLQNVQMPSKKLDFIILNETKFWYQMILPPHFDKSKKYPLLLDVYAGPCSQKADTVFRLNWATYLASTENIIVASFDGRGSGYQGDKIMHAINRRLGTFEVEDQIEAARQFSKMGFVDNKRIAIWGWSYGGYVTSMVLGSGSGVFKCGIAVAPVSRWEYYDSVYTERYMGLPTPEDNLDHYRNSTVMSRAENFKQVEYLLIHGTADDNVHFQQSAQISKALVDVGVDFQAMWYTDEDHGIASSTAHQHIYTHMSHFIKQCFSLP
# Procedure: Each peptide was tested in duplicate.
# Sample components were detected at 214 nanometers (nm).
# adenylate cyclase [1] = details: rat hypothalamic and pituitary tissue; cited from earlier work
# [2] = test system: rat liver and brain tissues; details: cited from earlier work
# adenylate cyclase [3] = details: liver plasma membranes; cited from earlier work
molecule,measurement,setting,value
"HADGSFSDEMNTILDNLATRDFINWLIQTKITD [compound 1, rGLP-2]",peptide cleaved by DPP-IV,"human placental DPP-IV; 24 hour incubation at 37° C., 0.2 mg/ml peptide in PBS pH 7.4, RP-HPLC",22%
GLP-2: glucagon-like peptide GLP-2 as studied by Hoosein et al (literature); species not stated,concentration stimulating adenylate cyclase,adenylate cyclase [1],30 to 50 pM
same,competition with glucagon for binding,[2],neither competes
same,stimulation of adenylate cyclase production,adenylate cyclase [3],nor stimulates
"CC[C@H](C)[C@H](NC(=O)[C@H](Cc1ccccc1)NC(=O)[C@H](CC(=O)O)NC(=O)[C@H](CCCNC(=N)N)NC(=O)[C@@H](NC(=O)[C@H](C)NC(=O)[C@H](CC(C)C)NC(=O)[C@H](CC(N)=O)NC(=O)[C@H](CC(=O)O)NC(=O)[C@H](CC(C)C)NC(=O)[C@@H](NC(=O)[C@@H](NC(=O)[C@H](CC(N)=O)NC(=O)[C@H](CCSC)NC(=O)[C@H](CCC(=O)O)NC(=O)[C@H](CC(=O)O)NC(=O)[C@H](CO)NC(=O)[C@H](Cc1ccccc1)NC(=O)[C@H](CO)NC(=O)CNC(=O)[C@H](CC(=O)O)NC(=O)[C@@H](C)NC(=O)[C@@H](N)Cc1c[nH]cn1)[C@@H](C)O)[C@@H](C)CC)[C@@H](C)O)C(=O)N[C@@H](CC(N)=O)C(=O)N[C@@H](Cc1c[nH]c2ccccc12)C(=O)N[C@@H](CC(C)C)C(=O)N[C@H](C(=O)N[C@@H](CCC(N)=O)C(=O)N[C@H](C(=O)N[C@@H](CCCCN)C(=O)N[C@H](C(=O)N[C@H](C(=O)N[C@@H](CC(=O)O)C(=O)O)[C@@H](C)O)[C@@H](C)CC)[C@@H](C)O)[C@@H](C)CC [compound 3, [D-Ala^2]rGLP-2] (H-H[dA]DGSFSDEMNTILDNLATRDFINWLIQTKITD-OH)",cleavage products detected,human placental DPP-IV,No cleavage products were detected
"HGDGSFSDEMNTILDNLATRDFINWLIQTKITD [compound 4, [Gly^2]rGLP-2]",cleavage products detected,human placental DPP-IV,No cleavage products were detected
